Laboratory results as given in paper PMC8600648 (ACS Omega, 2021).

Molecular target: TMV-CP (tobacco mosaic virus coat protein) (Tobacco mosaic virus (vulgare), UniProt P69687)
Test: microscale thermophoresis
Assay type: binding

Chain of TMV-CP (tobacco mosaic virus coat protein) (P69687 2-159 limits assumed): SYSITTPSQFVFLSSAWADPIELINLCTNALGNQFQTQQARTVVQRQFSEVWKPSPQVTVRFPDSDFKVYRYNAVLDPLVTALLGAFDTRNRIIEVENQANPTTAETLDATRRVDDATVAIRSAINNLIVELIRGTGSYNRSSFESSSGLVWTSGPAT

Structure (SMILES): O=c1c(O)c(-c2cc(O)c(O)c(O)c2)oc2cc(O)cc(O)c12 [myricetin, 3,5,7-trihydroxy-2-(3′,4′,5′-trihydroxyphenyl)-4H-chromen-4-one]
- Kd: 62.2 ± 22.2 µM
